Assays:
[1] = tested on: OPN knockout (OPN-KO) mice; assay: Determination of cortical bone thickness and area after PTH treatment, OPN-KO mice; assay type: in vivo, mouse; details: PTH(+) group, 80 μg/kg s.c., 4 weeks, femoral mid-diaphysis
Description: Horizontal sections were prepared from the femoral mid-diaphysis and tomographed using an X-ray microtomograph Musashi (Nittetsu-ELEX, Osaka, Japan). A Luzex-F automated image analysis system (Nireco, Tokyo, Japan) was then used for analysis of the image data to determine the thickness and area of cortical bone. The thickness was evaluated at the mean value averaged over 8 measurements every 45°.
(§1) To create an animal model in which the in vivo effects of OPN were inhibited, strain 129 female mice at 7 weeks of age were modified into knockout mice deficient in the OPN gene (OPN-KO mice), as described in Rittling et al. J. Bone Miner. Res., 13: 1101-1111, 1998. These mice were singly used for PTH treatment test. They were divided into groups of 6 mice each.
(§2) Recombinant human PTH(1-34) (Bachem, Torrance, Calif.) was dissolved in acidified physiological saline supplemented with 0.1% bovine serum albumin (Sigma Chemical Co.-Aldrich, St. Louis, Mo.). The OPN-KO mice were subcutaneously administered with 80 μg/kg of body weight human PTH(1-34) for 4 weeks on a five-days-a-week basis. Mice in the control group were administered with physiological saline alone.

[2] = tested on: OPN knockout (OPN-KO) mice; assay: Analysis of urinary deoxypyridinoline (Dpyr) after PTH treatment, OPN-KO mice; assay type: in vivo, mouse
Description: At 26 days after treatment with PTH, a 24-hour urine sample was collected from each mouse (10 samples per group). As a marker of bone metabolism, the level of urinary deoxypyridinoline (Dpyr) was measured for each sample using an ELISA kit (Metra Biosystems, San Diego, Calif.) in accordance with the manufacturer's protocol.
as §1, §2

osteoporosis patients = details: 21 patients, once-daily subcutaneous injections for 6 to 24 months; cited from earlier work
[3] = tested on: wild-type strain 129 female mice; assay: Determination of TRAP-positive cells (osteoclasts) after PTH treatment, wild-type mice; assay type: in vivo, mouse; details: WT mice, PTH(+) group, 80 μg/kg s.c., 4 weeks
Description: After treatment with PTH, forefoot bone was excised from each animal. Each bone was rinsed with PBS, fixed for 7 days in 4% paraformaldehyde acid and decalcified for 3 days in 10% EDTA (pH 7.4), followed by dehydration and embedding in paraffin. Serial sections of 7 μm thickness were prepared from paraffin blocks and stained to measure TRAP (tartrate resistant acid phosphatase) activity, with Alcian blue for counter-staining. Among TRAP-positive cells attached to cancellous bone, those having at least three nuclei were counted using 15 serial sections of 7 μm thickness prepared from each bone. Each of the 15 sections was taken at five-section intervals from a total of 75 sections per bone. The number of multinucleated TRAP-positive cells in all 15 sections was summed to give the total number of osteoclasts per unit trabecular perimeter. Recombinant human PTH(1-34) (Bachem, Torrance, Calif.) was dissolved in acidified physiological saline supplemented with 0.1% bovine serum albumin (Sigma Chemical Co.-Aldrich, St. Louis, Mo.). The OPN-KO mice were subcutaneously administered with 80 μg/kg of body weight human PTH(1-34) for 4 weeks on a five-days-a-week basis. Mice in the control group were administered with physiological saline alone. The effect of PTH on bone metabolism was also examined in the same manner as shown in Example 1, using wild-type strain 129 female mice (7 weeks of age). […]

[4] = tested on: wild-type strain 129 female mice; assay: Analysis of urinary deoxypyridinoline (Dpyr) after PTH treatment, wild-type mice; assay type: in vivo, mouse; details: WT mice
Description: At 26 days after treatment with PTH, a 24-hour urine sample was collected from each mouse (10 samples per group). As a marker of bone metabolism, the level of urinary deoxypyridinoline (Dpyr) was measured for each sample using an ELISA kit (Metra Biosystems, San Diego, Calif.) in accordance with the manufacturer's protocol. Recombinant human PTH(1-34) (Bachem, Torrance, Calif.) was dissolved in acidified physiological saline supplemented with 0.1% bovine serum albumin (Sigma Chemical Co.-Aldrich, St. Louis, Mo.). The OPN-KO mice were subcutaneously administered with 80 μg/kg of body weight human PTH(1-34) for 4 weeks on a five-days-a-week basis. Mice in the control group were administered with physiological saline alone. The effect of PTH on bone metabolism was also examined in the same manner as shown in Example 1, using wild-type strain 129 female mice (7 weeks of age). These mice were divided into groups of 6 mice each.

[5] = tested on: wild-type strain 129 female mice; assay: Determination of cortical bone thickness and area after PTH treatment, wild-type mice; assay type: in vivo, mouse; details: WT mice, PTH(+) group, 80 μg/kg s.c., 4 weeks
Description: Horizontal sections were prepared from the femoral mid-diaphysis and tomographed using an X-ray microtomograph Musashi (Nittetsu-ELEX, Osaka, Japan). A Luzex-F automated image analysis system (Nireco, Tokyo, Japan) was then used for analysis of the image data to determine the thickness and area of cortical bone. The thickness was evaluated at the mean value averaged over 8 measurements every 45°. Recombinant human PTH(1-34) (Bachem, Torrance, Calif.) was dissolved in acidified physiological saline supplemented with 0.1% bovine serum albumin (Sigma Chemical Co.-Aldrich, St. Louis, Mo.). The OPN-KO mice were subcutaneously administered with 80 μg/kg of body weight human PTH(1-34) for 4 weeks on a five-days-a-week basis. Mice in the control group were administered with physiological saline alone. The effect of PTH on bone metabolism was also examined in the same manner as shown in Example 1, using wild-type strain 129 female mice (7 weeks of age). These mice were divided into groups of 6 mice each.

[6] = tested on: OPN knockout (OPN-KO) mice; assay: Determination of cancellous bone mass (BV/TV) after PTH treatment, OPN-KO mice; assay type: in vivo, mouse; details: PTH(+) group, 80 μg/kg s.c., 4 weeks, five days a week, mean ± standard error
Description: Sagittal sections were prepared from the metaphyseal region of femur and tomographed using an X-ray microtomograph Musashi (Nittetsu-ELEX, Osaka, Japan). A Luzex-F automated Image analysis system (Nireco, Tokyo, Japan) was then used for analysis of the image data from a 1.47 mm^2 square area (0.7 mm×2.1 mm) located 0.2 mm apart from the growth plate of the distal end of femur to obtain BV/TV values.
BV/TV (bone volume/total tissue volume) denotes the unit bone mass (%), i.e., the percentage of the total trabecular volume in the total tissue volume. Namely, an increase in BV/TV means an increase in calcified bone.
as §1, §2

[7] = PTH(+) group, 24-hour urine at 26 days

## human PTH(1-34)
[1]
  area of cortical bone: 0.88±0.13 mm^2
  thickness of cortical bone: 0.26±0.04 mm
[2]; [7]
  urinary Dpyr level: 34.67±4.52 nM/mM Cr
[2]; PTH(+) vs PTH(−) group, p<0.05
  fold increase in systemic bone resorption (urinary Dpyr) by PTH treatment: ~1.2 fold
Osteoporosis patients
  calcium balance: no improvement in calcium balance
  cancellous bone mass: increased cancellous bone mass
  cortical bone mass: reduced cortical bone mass
[3]
  number of osteoclasts per unit trabecular perimeter of cancellous bone trabeculae: 9.2±1.8 cells/mm
[4]; [7]
  urinary Dpyr level: 34.86±6.90 nM/mM Cr
[4]; PTH(+) vs PTH(−) group, p<0.05
  fold increase in systemic bone resorption (urinary Dpyr) by PTH treatment: ~1.2 fold
[5]
  area of cortical bone: 0.69±0.03 mm^2
  thickness of cortical bone: 0.20±0.01 mm
[6]
  cancellous bone mass BV/TV: 24.41±2.85%

— patent publication US20080076711A1, “Therapeutic agents for osteopenia” (Chugai Seiyaku Kabushiki Kaisha, priority 2001, published 2008)
